# Values quoted from earlier work as cited in US20220047856A1, “HYDROGEL FOR IN-VIVO DIRECTIONAL RELEASE OF MEDICATION” (UMC Utrecht Holding B.V., priority 2018, published 2022).
# Conditions: local anaesthetic, conventional bupivacaine
compound,measurement,value
"CCCCN1CCCCC1C(=O)Nc1c(C)cccc1C (stereo not shown) [Bupi, Bupivacaine]",duration of its effect,approx. 8 hours
